Test results as given in patent US20150197550A1 (UNIVERSITY OF ULSTER, priority 2012, published 2015).
Numbered stars: 1 amine (or outer) side, 2 acyl side, 3 side chain; on linkers, the order of the positions; unused ones are H or OH. Square brackets hold non-standard residues; d marks the D form. Side chains are listed from the residue outwards. Peptide text beside a SMILES is read from it. * marks the point of attachment. γGlu = O=C(O)[C@H](CCC(=O)[*:2])N[*:1]; Palmitoyl = CCCCCCCCCCCCCCCC(=O)*; Abu = CC[C@H](N)C(=O)O; Aib = CC(C)(N)C(=O)O

experiment: Stability on incubation with mouse plasma for 8 h (RP-HPLC peak height); format: in vitro ADME; conditions: mouse plasma, 8 h, peak height vs time = 0 h; read-out: Percentage of degradation after 8h
Description: The samples were then separated on RP-HPLC and the peak height compared to the value at time=0 hours.

Structure (SMILES)	metabolised at 8 h
CC[C@H](C)[C@H](NC(=O)[C@H](Cc1ccccc1)NC(=O)[C@@H](NC(=O)CNC(=O)[C@H](CCC(=O)O)NC(=O)[C@@H](C)NC(=O)[C@@H](N)Cc1c[nH]cn1)[C@@H](C)O)C(=O)N[C@@H](CO)C(=O)N[C@@H](CC(=O)O)C(=O)N[C@@H](Cc1ccc(O)cc1)C(=O)N[C@@H](CO)C(=O)N[C@@H](CCCCN)C(=O)N[C@@H](Cc1ccc(O)cc1)C(=O)N[C@@H](CCSC)C(=O)N[C@@H](CC(=O)O)C(=O)N[C@@H](CC(N)=O)C(=O)N[C@@H](CCCNC(=N)N)C(=O)N[C@@H](CCCNC(=N)N)C(=O)N[C@@H](C)C(=O)N[C@@H](CCCCN)C(=O)N[C@@H](CC(=O)O)C(=O)N[C@@H](Cc1ccccc1)C(=O)N[C@H](C(=O)N[C@@H](CCC(N)=O)C(=O)N[C@@H](Cc1c[nH]c2ccccc12)C(=O)N[C@@H](CC(C)C)C(=O)N[C@@H](CCSC)C(=O)N[C@@H](CC(N)=O)C(=O)N[C@H](C(=O)O)[C@@H](C)O)C(C)C [(D-A^2 I^7) dogfish glucagon, (D-A^2I^7) dogfish glucagon] (H-H[dA]EGTFISDYSKYMDNRRAKDFVQWLMNT-OH; N-terminus and C-terminus assumed)	33%

same assay, conditions: mouse, plasma

Structure (SMILES)	metabolised at 8 h
CC[C@H](NC(=O)[C@@H](N)Cc1c[nH]cn1)C(=O)N[C@@H](CCC(=O)O)C(=O)NCC(=O)N[C@H](C(=O)N[C@@H](Cc1ccccc1)C(=O)N[C@H](C(=O)N[C@@H](CO)C(=O)N[C@@H](CC(=O)O)C(=O)N[C@@H](Cc1ccc(O)cc1)C(=O)N[C@@H](CO)C(=O)N[C@@H](CCCCN)C(=O)N[C@@H](Cc1ccc(O)cc1)C(=O)N[C@@H](CCSC)C(=O)N[C@@H](CC(=O)O)C(=O)N[C@@H](CC(N)=O)C(=O)N[C@@H](CCCNC(=N)N)C(=O)N[C@@H](CCCNC(=N)N)C(=O)N[C@@H](C)C(=O)N[C@@H](CCCCN)C(=O)N[C@@H](CC(=O)O)C(=O)N[C@@H](Cc1ccccc1)C(=O)N[C@H](C(=O)N[C@@H](CCC(N)=O)C(=O)N[C@@H](Cc1c[nH]c2ccccc12)C(=O)N[C@@H](CC(C)C)C(=O)N[C@@H](CCSC)C(=O)N[C@@H](CC(N)=O)C(=O)N[C@H](C(=O)O)[C@@H](C)O)C(C)C)[C@@H](C)O)[C@@H](C)O [(Abu^2) dogfish glucagon] (H-H[Abu]EGTFTSDYSKYMDNRRAKDFVQWLMNT-OH; N-terminus and C-terminus assumed)	58.4%
CSCC[C@H](NC(=O)[C@H](Cc1ccc(O)cc1)NC(=O)[C@H](CCCCN)NC(=O)[C@H](CO)NC(=O)[C@H](Cc1ccc(O)cc1)NC(=O)[C@H](CC(=O)O)NC(=O)[C@H](CO)NC(=O)[C@@H](NC(=O)[C@H](Cc1ccccc1)NC(=O)[C@@H](NC(=O)CNC(=O)[C@H](CCC(=O)O)NC(=O)C(C)(C)NC(=O)[C@@H](N)Cc1c[nH]cn1)[C@@H](C)O)[C@@H](C)O)C(=O)N[C@@H](CC(=O)O)C(=O)N[C@@H](CC(N)=O)C(=O)N[C@@H](CCCNC(=N)N)C(=O)N[C@@H](CCCNC(=N)N)C(=O)N[C@@H](C)C(=O)N[C@@H](CCCCN)C(=O)N[C@@H](CC(=O)O)C(=O)N[C@@H](Cc1ccccc1)C(=O)N[C@H](C(=O)N[C@@H](CCC(N)=O)C(=O)N[C@@H](Cc1c[nH]c2ccccc12)C(=O)N[C@@H](CC(C)C)C(=O)N[C@@H](CCSC)C(=O)N[C@@H](CC(N)=O)C(=O)N[C@H](C(=O)O)[C@@H](C)O)C(C)C [(Aib^2) dogfish glucagon] (H-H[Aib]EGTFTSDYSKYMDNRRAKDFVQWLMNT-OH; N-terminus and C-terminus assumed)	47.4%
CSCC[C@H](NC(=O)[C@H](Cc1ccc(O)cc1)NC(=O)[C@H](CCCCN)NC(=O)[C@H](CO)NC(=O)[C@H](Cc1ccc(O)cc1)NC(=O)[C@H](CC(=O)O)NC(=O)[C@H](CO)NC(=O)[C@@H](NC(=O)[C@H](Cc1ccccc1)NC(=O)[C@@H](NC(=O)CNC(=O)[C@H](CCC(=O)O)NC(=O)[C@@H](C)NC(=O)[C@@H](N)Cc1c[nH]cn1)[C@@H](C)O)[C@@H](C)O)C(=O)N[C@@H](CC(=O)O)C(=O)N[C@@H](CC(N)=O)C(=O)N[C@@H](CCCNC(=N)N)C(=O)N[C@@H](CCCNC(=N)N)C(=O)N[C@@H](C)C(=O)N[C@@H](CCCCN)C(=O)N[C@H](CC(=O)O)C(=O)N[C@@H](Cc1ccccc1)C(=O)N[C@H](C(=O)N[C@@H](CCC(N)=O)C(=O)N[C@@H](Cc1c[nH]c2ccccc12)C(=O)N[C@@H](CC(C)C)C(=O)N[C@@H](CCSC)C(=O)N[C@@H](CC(N)=O)C(=O)N[C@H](C(=O)O)[C@@H](C)O)C(C)C [(D-A^2 D-D^21) dogfish glucagon, (D-A^2D-D^21) dogfish glucagon] (H-H[dA]EGTFTSDYSKYMDNRRAK[dD]FVQWLMNT-OH; N-terminus and C-terminus assumed)	31.7%
CCCCCCCCCCCCCCCC(=O)N[C@@H](CCC(=O)NCCCC[C@H](NC(=O)[C@@H](NC(=O)[C@H](CC(N)=O)NC(=O)[C@H](CCSC)NC(=O)[C@H](CC(C)C)NC(=O)[C@H](Cc1c[nH]c2ccccc12)NC(=O)[C@H](CCC(N)=O)NC(=O)[C@@H](NC(=O)[C@H](Cc1ccccc1)NC(=O)[C@H](CC(=O)O)NC(=O)[C@H](CCCCN)NC(=O)[C@H](C)NC(=O)[C@H](CCCNC(=N)N)NC(=O)[C@H](CCCNC(=N)N)NC(=O)[C@H](CC(N)=O)NC(=O)[C@H](CC(=O)O)NC(=O)[C@H](CCSC)NC(=O)[C@H](Cc1ccc(O)cc1)NC(=O)[C@H](CCCCN)NC(=O)[C@H](CO)NC(=O)[C@H](Cc1ccc(O)cc1)NC(=O)[C@H](CC(=O)O)NC(=O)[C@H](CO)NC(=O)[C@@H](NC(=O)[C@H](Cc1ccccc1)NC(=O)[C@@H](NC(=O)CNC(=O)[C@H](CCC(=O)O)NC(=O)[C@@H](C)NC(=O)[C@@H](N)Cc1c[nH]cn1)[C@@H](C)O)[C@@H](C)O)C(C)C)[C@@H](C)O)C(=O)O)C(=O)O [(D-A^2) dogfish glucagon Lys^30-γ-Glutamyl-PAL] (H-H[dA]EGTFTSDYSKYMDNRRAKDFVQWLMNTK([γGlu-Palmitoyl])-OH; N-terminus and C-terminus assumed)	11.6%

Now from value to molecule:

metabolised at 8 h	Structure (SMILES)
33.9%	CSCC[C@H](NC(=O)[C@H](C)NC(=O)[C@H](CCCCN)NC(=O)[C@H](CO)NC(=O)[C@H](Cc1ccc(O)cc1)NC(=O)[C@H](CC(=O)O)NC(=O)[C@H](CO)NC(=O)[C@@H](NC(=O)[C@H](Cc1ccccc1)NC(=O)[C@@H](NC(=O)CNC(=O)[C@H](CCC(=O)O)NC(=O)[C@@H](C)NC(=O)[C@@H](N)Cc1c[nH]cn1)[C@@H](C)O)[C@@H](C)O)C(=O)N[C@@H](CC(=O)O)C(=O)N[C@@H](CC(N)=O)C(=O)N[C@@H](CCCNC(=N)N)C(=O)N[C@@H](CCCNC(=N)N)C(=O)N[C@@H](C)C(=O)N[C@@H](CCCCN)C(=O)N[C@@H](CC(=O)O)C(=O)N[C@@H](Cc1ccccc1)C(=O)N[C@H](C(=O)N[C@@H](CCC(N)=O)C(=O)N[C@@H](Cc1c[nH]c2ccccc12)C(=O)N[C@@H](CC(C)C)C(=O)N[C@@H](CCSC)C(=O)N[C@@H](CC(N)=O)C(=O)N[C@H](C(=O)O)[C@@H](C)O)C(C)C [(D-A^2 A^13) dogfish glucagon, (D-A^2A^13) dogfish glucagon] (H-H[dA]EGTFTSDYSKAMDNRRAKDFVQWLMNT-OH; N-terminus and C-terminus assumed)
26.5%	CSCC[C@H](NC(=O)[C@H](CC(C)C)NC(=O)[C@H](Cc1c[nH]c2ccccc12)NC(=O)[C@H](CCC(N)=O)NC(=O)[C@@H](NC(=O)[C@H](Cc1ccccc1)NC(=O)[C@H](CC(=O)O)NC(=O)[C@H](CCCCN)NC(=O)[C@H](C)NC(=O)[C@H](CCCNC(=N)N)NC(=O)[C@H](CCCNC(=N)N)NC(=O)[C@H](CC(N)=O)NC(=O)[C@H](CC(=O)O)NC(=O)[C@H](CCSC)NC(=O)[C@@H](Cc1ccc(O)cc1)NC(=O)[C@H](CCCCN)NC(=O)[C@H](CO)NC(=O)[C@H](Cc1ccc(O)cc1)NC(=O)[C@H](CC(=O)O)NC(=O)[C@H](CO)NC(=O)[C@@H](NC(=O)[C@H](Cc1ccccc1)NC(=O)[C@@H](NC(=O)CNC(=O)[C@H](CCC(=O)O)NC(=O)[C@@H](C)NC(=O)[C@@H](N)Cc1c[nH]cn1)[C@@H](C)O)[C@@H](C)O)C(C)C)C(=O)N[C@@H](CC(N)=O)C(=O)N[C@H](C(=O)O)[C@@H](C)O [(D-A^2 D-Y^13) dogfish glucagon, (D-A^2D-Y^13) dogfish glucagon] (H-H[dA]EGTFTSDYSK[dY]MDNRRAKDFVQWLMNT-OH; N-terminus and C-terminus assumed)
20.7%	CC[C@H](C)[C@H](NC(=O)[C@H](CO)NC(=O)[C@H](Cc1ccc(O)cc1)NC(=O)[C@H](CC(=O)O)NC(=O)[C@H](CO)NC(=O)[C@@H](NC(=O)[C@H](Cc1ccccc1)NC(=O)[C@@H](NC(=O)CNC(=O)[C@H](CCC(=O)O)NC(=O)[C@@H](C)NC(=O)[C@@H](N)Cc1c[nH]cn1)[C@@H](C)O)[C@@H](C)O)C(=O)N[C@@H](Cc1ccc(O)cc1)C(=O)N[C@@H](CCSC)C(=O)N[C@@H](CC(=O)O)C(=O)N[C@@H](CC(N)=O)C(=O)N[C@@H](CCCNC(=N)N)C(=O)N[C@@H](CCCNC(=N)N)C(=O)N[C@@H](C)C(=O)N[C@@H](CCCCN)C(=O)N[C@@H](CC(=O)O)C(=O)N[C@@H](Cc1ccccc1)C(=O)N[C@H](C(=O)N[C@@H](CCC(N)=O)C(=O)N[C@@H](Cc1c[nH]c2ccccc12)C(=O)N[C@@H](CC(C)C)C(=O)N[C@@H](CCSC)C(=O)N[C@@H](CC(N)=O)C(=O)N[C@H](C(=O)O)[C@@H](C)O)C(C)C [(D-A^2 I^12) dogfish glucagon, (D-A^2I^12) dogfish glucagon] (H-H[dA]EGTFTSDYSIYMDNRRAKDFVQWLMNT-OH; N-terminus and C-terminus assumed)
